Test results reported in patent publication US20250129430A1, “HIGH ATP-AFFINITY PROTEIN AS THERAPEUTIC TARGET FOR INTRACTABLE CANCER MOLECULAR SUBTYPES AND INHIBITOR THEREOF” (VeraVerse Co., Ltd., priority 2021, published 2025).

Assays:
Format in all cases: cell-based, human
[1] = tested on: non-SEM-type gastric cancer cell line; test: Cell viability drug screen, AUC summary over non-SEM-type lines; conditions: in the non-SEM-type gastric cancer cell line
[2] = tested on: SEM-type gastric cancer cell line; test: Cell viability drug screen, AUC summary over SEM-type lines
Procedure: An FDA-approved small-molecule pharmacological compound (#L1300) and an anticancer compound for research (#L2000) were purchased from Selecckchem and a 10 mM solution was prepared in DMSO. A total of 1,345 compounds were tested the cell viability of the seven EMT gastric cancer cell lines.
Cells cultured for cell-based drug assay were inoculated into a 96-well white optical plate (Corning) at 5×10^3 cells per well. After 24 hours after inoculation, a 2.5 MJT (primary screen) or a half-log 12-serial diluent (secondary screen) of the pharmacological compound contained in DMSO is added to the cells with a robot using a BioMek FXp liquid processor (Beckman) to add to the cells at 50 mM. The final drug concentration in the 5 ns range and the DMSO specification control (0.5%) were calculated. The cells were then further incubated at 37° C. in a 5% CO2 incubator for 72 hours prior to measuring cell viability using the extra-GLO assay kit (Promega). The luminescent properties were measured after 15 min incubation at room temperature using a plate stacker equipped with a plate stacker. The normalized viability for the DMSO-based control was measured to generate a cell line-specific 12-point dose-response curve for each pharmacological compound, and then the area under the curve (AUC) was calculated using a trapezoidal method.

FU97 = test: Cell viability drug screen, 12-point dose-response AUC; conditions: FU97 cells; 72 hours; 12-point dose-response
Summary of the method: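 Trapezoidal AUC of a 12-point, DMSO-normalized dose-response curve. Luminescent viability was measured after 72 h of exposure at 37° C to half-log serial dilutions (0.5% DMSO control), dosed 24 h after plating FU97 cells at 5×10^3 per well.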

SNU719 = test: as above; conditions: SNU719 cells; 72 hours; 12-point dose-response
Summary of the method: (§1)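 AUC comes from 12-point half-log dose–response curves, normalized to DMSO-treated cells and integrated trapezoidally, repeats averaged. Luminescent viability read after 72 h compound exposure at 37 °C; cells plated 5×10^3 per well 24 h before dosing.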

MKN74 = test: as above; conditions: MKN74 cells; 72 hours; 12-point dose-response
Summary of the method: as §1

SNU601 = test: as above; conditions: SNU601 cells; 72 hours; 12-point dose-response
Summary of the method: as §1

SNU638 = test: as above; conditions: SNU638 cells; 72 hours; 12-point dose-response
Summary of the method: as §1

SNU484 = test: as above; conditions: SNU484 cells; 72 hours; 12-point dose-response
Summary of the method: as §1

AGS = test: as above; conditions: AGS cells; 72 hours; 12-point dose-response
Summary of the method: as §1

SNU620 = test: as above; conditions: SNU620 cells; 72 hours; 12-point dose-response
Summary of the method: as §1

MKN45 = test: as above; conditions: MKN45 cells; 72 hours; 12-point dose-response
Summary of the method: as §1

SNU1750 = test: as above; conditions: SNU1750 cells; 72 hours; 12-point dose-response
Summary of the method: as §1

SNU668 = test: as above; conditions: SNU668 cells; 72 hours; 12-point dose-response
Summary of the method: as §1

SNU1 = test: as above; conditions: SNU1 cells; 72 hours; 12-point dose-response
Summary of the method: as §1

KATO3 = test: as above; conditions: KATO3 cells; 72 hours; 12-point dose-response
Summary of the method: as §1

NCC19 = test: as above; conditions: NCC19 cells; 72 hours; 12-point dose-response
Summary of the method: as §1

NCC59 = test: as above; conditions: NCC59 cells; 72 hours; 12-point dose-response
Summary of the method: as §1

NCI_N87 = test: as above; conditions: NCI_N87 cells; 72 hours; 12-point dose-response
Summary of the method: as §1

NCC24 = test: as above; conditions: NCC24 cells; 72 hours; 12-point dose-response
Summary of the method: as §1

Hs746T = test: as above; conditions: Hs746T cells; 72 hours; 12-point dose-response
Summary of the method: as §1

YCC11 = test: as above; conditions: YCC11 cells; 72 hours; 12-point dose-response
Summary of the method: as §1

SNU16 = test: as above; conditions: SNU16 cells; 72 hours; 12-point dose-response
Summary of the method: as §1

MKN28 = test: as above; conditions: MKN28 cells; 72 hours; 12-point dose-response
Summary of the method: as §1

OCUM1 = test: as above; conditions: OCUM1 cells; 72 hours; 12-point dose-response
Summary of the method: as §1

SNU1967 = test: as above; conditions: SNU1967 cells; 72 hours; 12-point dose-response
Summary of the method: as §1

SNU216 = test: as above; conditions: SNU216 cells; 72 hours; 12-point dose-response
Summary of the method: as §1

SK4 = test: as above; conditions: SK4 cells; 72 hours; 12-point dose-response
Summary of the method: as §1

YCC2 = test: as above; conditions: YCC2 cells; 72 hours; 12-point dose-response
Summary of the method: as §1

NCC20 = test: as above; conditions: NCC20 cells; 72 hours; 12-point dose-response
Summary of the method: as §1

MKN1 = test: as above; conditions: MKN1 cells; 72 hours; 12-point dose-response
Summary of the method: as §1

YCC3 = test: as above; conditions: YCC3 cells; 72 hours; 12-point dose-response
Summary of the method: as §1

SMILES | AUC value [1] | normalized viability AUC [2] | area under the viability curve (AUC), normalized (FU97) | area under the viability curve (AUC), normalized (SNU719) | area under the viability curve (AUC), normalized (MKN74) | area under the viability curve (AUC), normalized (SNU601) | area under the viability curve (AUC), normalized (SNU638) | area under the viability curve (AUC), normalized (SNU484) | area under the viability curve (AUC), normalized (AGS) | area under the viability curve (AUC), normalized (SNU620) | area under the viability curve (AUC), normalized (MKN45) | area under the viability curve (AUC), normalized (SNU1750) | area under the viability curve (AUC), normalized (SNU668) | area under the viability curve (AUC), normalized (SNU1) | area under the viability curve (AUC), normalized (KATO3) | area under the viability curve (AUC), normalized (NCC19) | area under the viability curve (AUC), normalized (NCC59) | area under the viability curve (AUC), normalized (NCI_N87) | area under the viability curve (AUC), normalized (NCC24) | area under the viability curve (AUC), normalized (Hs746T) | also measured
C[C@@H]1O[C@@H](O[C@H]2C[C@@H](O)[C@]3(CO)[C@H]4[C@H](O)C[C@]5(C)[C@@H](C6=CC(=O)OC6)CC[C@]5(O)[C@@H]4CC[C@]3(O)C2)[C@H](O)[C@H](O)[C@H]1O [Oubain, Ouabain] | high | negative | −0.3889 | 5.038 | −0.9472 | 2.702 | 1.054 | −2.03 | −0.4351 | 0 | −0.3665 | −0.7374 | −1.026 | −0.4741 | 4.783 | 0.3874 | 1.567 | 0.9192 | −0.2417 | 0.3093 | area under the viability curve (AUC), normalized (YCC11): −0.3494; area under the viability curve (AUC), normalized (SNU16): 2.229; area under the viability curve (AUC), normalized (MKN28): −0.5183; area under the viability curve (AUC), normalized (OCUM1): 0.1113; area under the viability curve (AUC), normalized (SNU1967): 0.9873; area under the viability curve (AUC), normalized (SNU216): 0.2009; area under the viability curve (AUC), normalized (SK4): −1.414; area under the viability curve (AUC), normalized (YCC2): −0.6785; area under the viability curve (AUC), normalized (NCC20): 0.2365; area under the viability curve (AUC), normalized (MKN1): −1.223; area under the viability curve (AUC), normalized (YCC3): 4.209
Nc1ccc(-c2ccc3ncc4ccc(=O)n(-c5cccc(C(F)(F)F)c5)c4c3c2)cn1 [Torin, Torin 2] | high | negative | −1.526 | 3.841 | −0.1868 | 0.4104 | 0.3739 | −0.505 | −1.701 | 0.3965 | 0.6704 | −0.787 | 0.4391 | 1.392 | 2.66 | 1.614 | 1.584 | 0.3078 | 0 | −0.7581 | area under the viability curve (AUC), normalized (YCC11): −2.299; area under the viability curve (AUC), normalized (SNU16): 0.9803; area under the viability curve (AUC), normalized (MKN28): 0.8861; area under the viability curve (AUC), normalized (OCUM1): −0.1127; area under the viability curve (AUC), normalized (SNU1967): −0.557; area under the viability curve (AUC), normalized (SNU216): −0.4964; area under the viability curve (AUC), normalized (SK4): −2.722; area under the viability curve (AUC), normalized (YCC2): −0.06527; area under the viability curve (AUC), normalized (NCC20): −1.598; area under the viability curve (AUC), normalized (MKN1): −1.574; area under the viability curve (AUC), normalized (YCC3): 1.399
